From patent US20050239358A1, “Antimicrobial melamine resin and products made therefrom” (MICROBAN PRODUCTS COMPANY, priority 2002, published 2005)

Tested on: bacteria and fungi
Experiment: antimicrobial efficacy of agents in melamine formaldehyde resin
Details: agent for melamine resin; stated in words, no test described

Compound	efficacy as antimicrobial agent
CCCCn1sc2ccccc2c1=O [N-butyl-1,2-benzisothiazolin-3-one]	efficacious
Cn1sccc1=O [methyl-3(2H)-isothiazolone]	efficacious
Oc1cc(Cl)ccc1Oc1ccc(Cl)cc1Cl [Triclosan, 2,4,4′-trichloro-2′-hydroxydiphenyl ether]	particularly efficacious
Cn1sc(Cl)cc1=O [chloro-2-methyl-3(2H)-isothiazolone]	efficacious
CCCCCCCCn1sc(Cl)c(Cl)c1=O [4,5-dichloro-2-N-octyl-3(2H)-isothiazolone]	efficacious
O=c1[nH]sc2ccccc12 [1,2-benzisothiazolin-3-one]	efficacious

Tested on: not given
Experiment: not given
Details: at 20° C.; cited from earlier work

Compound	vapor pressure
Oc1cc(Cl)ccc1Oc1ccc(Cl)cc1Cl [Triclosan, 2,4,4′-trichloro-2′-hydroxydiphenyl ether]	4×10^−4 mm
